Assay results as given in US20230129485A1, “SYSTEM AND METHOD FOR DETERMINING MATERIAL PROPERTIES OF MOLECULAR SYSTEMS FROM AN AB-INITIO PARAMETERIZED FORCE-FIELD” (InterX, Inc., priority 2021, published 2023).
Like-named read-outs stand apart in the source and are kept apart here.

Tests used:
[1] = Table 5; free energy of hydration, AMOEBA prediction taken from literature; cited from earlier work
[2] = Free energy of hydration by Polarizable Continuum Model (PCM); settings: absolute error vs Exp (hydration)
Method in brief: (§1)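 Implicit-solvent predictions of hydration free energy. MolPro supplied the COSMO solvation energies across the dataset. Predicted SMD and PCM values were received rather than computed here. Coverage for SMD, PCM and COSMO-RS matches the QM-parameterized force-field subset.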

[3] = implicit solvent model, values received; cited from earlier work
[4] = Free energy of hydration by Solvation Model Dielectric (SMD) implicit solvent model; settings: absolute error vs Exp (hydration)
Method in brief: as §1

[5] = Free energy of hydration predicted with the QM-parameterized force field model (ARROW FF), classical MD and PIMD simulation in a water box; settings: for Arrow error: Table 5, error of Arrow PIMD8 hydration free energy vs experiment; for Arrow PIMD8 Error: absolute error vs Exp (hydration)
Method in brief: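 Classical and PIMD runs (MTS integrator, MTTK barostat at 1 atm) followed minimization and 50 ps equilibration, with 1 ns NPT production per window. Fifteen unequally spaced lambda windows removed all solute-solvent interactions simultaneously in a 32 Å water box. Hydration free energy computed by Bennett acceptance ratio and thermodynamic integration.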

[6] = Free energy of hydration by COSMO implicit solvent model (MolPro ver. 2012); settings: absolute error vs Exp (hydration)
Method in brief: as §1

[7] = Free energy of hydration predicted by polarizable AMOEBA force field, from literature; settings: Table 5; error of AMOEBA hydration free energy vs experiment
[8] = Table 5; free energy of hydration, GAFF prediction taken from literature; cited from earlier work
[9] = Free energy of hydration predicted by General Amber Force Field (GAFF), from literature; settings: Table 5; error of GAFF hydration free energy vs experiment
[10] = Free energy of hydration by COSMO-RS
Method in brief: as §1

[11] = Free energy of solvation in cyclohexane predicted with the QM-parameterized force field model (ARROW FF), MD and PIMD; settings: Table 4; for CHEX Arrow MD Error: error of MD cyclohexane solvation free energy vs experiment; for CHEX Arrow PIMD4 Error: error of PIMD4 cyclohexane solvation free energy vs experiment
Text: Cyclohexane (CHEX) is nonpolar and equilibrates relatively quickly.
Particle-Mesh Ewald (PME) algorithm was used to compute the electrostatic interactions. A 32×32×32 grid mesh and 5th power spline interpolation order can be used to compute the inverse PME sum. 9 Å cutoffs were used to compute the direct PME sum as well as the exchange and dispersion interactions. Bulk corrections were applied to account for distance cut-off of dispersion interactions. Solvation free energies were computed by decoupling the interactions between the solute and the solvent molecules. Electrostatic, exchange-repulsion and dispersion interactions were switched off simultaneously using a lambda-dependent scaling (a scaling factor power=2 was used) and a soft-coring algorithm (maximal soft-coring radius=1.5 Å, soft-coring radius scaling factor power=1). 15 lambda points unequally spaced (X=0, 0.05, 0.1, 0.2, 0.3, 0.4, 0.5, 0.6, 0.7, 0.75, 0.8, 0.85, 0.9, 0.95, 1.0) were used to decouple the solute-solvent intermolecular interactions.
In some simulations of the QM-parameterized force field molecular simulation process, energy minimization (10,000 steps) using the steepest descent algorithm was initially performed on all the simulation systems. This was followed by a 50 ps equilibration and 1 ns production runs in the isothermal-isobaric ensemble (NPT). […] Pressure was maintained at 1 atm using a MTTK barostat (relaxation time=5 ps). A Multiple Time Step (MTS) algorithm was used to integrate the equations of motion both for the classical and path-integral runs. […] The calculations were performed using the QM-parameterized force field model.
Using the QM-parameterized force field model, the QM-parameterized force field device can compute or predict the solvation free energies using both the Bennett acceptance ratio (BAR) and thermodynamic integration (TI) method with <dH/dλ> values interpolated by cubic splines.

[12] = implicit solvent model, values received; cited from earlier work; remark: listed apart in the source
[13] = experimental, cited from earlier work; for Exp (hydration): Table 5
[14] = experimental, cited from earlier work
[15] = CHEX/H2O partition coefficient (log D) predicted with the QM-parameterized force field model (ARROW FF)
Method in brief: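 Cyclohexane/water partition coefficients were predicted by molecular simulation with a QM-parameterized force field, with bonded force constants and equilibrium values fitted to MP2/aug-cc-pVTZ energies. Solutes carried neutral functional groups, and results from four independent groups were averaged.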

[16] = Table 3; CHEX/H2O partition coefficient, experimental; cited from earlier work
[17] = Table 3, absolute error of MD hydration free energy vs experiment
[18] = Table 3, absolute error of PIMD8 hydration free energy vs experiment
[19] = Table 4, error of MD hydration free energy vs experiment
[20] = Table 4, error of PIMD8 hydration free energy vs experiment
[21] = Table 3, free energy of hydration
[22] = Table 4, neutral amino-acid analogues
[23] = Table 3, free energy of solvation in cyclohexane
[24] = Table 4, solvation free energy in cyclohexane
[25] = Table 3, absolute error of MD log D vs experiment
[26] = Table 3, absolute error of PIMD log D vs experiment

Compound | AMOEBA [1] | PCM Error [2] | SMD free energy of hydration [3] | SMD Error [4] | water Arrow MD Error [5, 17] | water Arrow PIMD8 Error [5, 18] | Arrow error [5] | Arrow PIMD8 Error [5] | COSMO/Molpro Error [6] | AMOEBA error [7] | GAFF [8] | GAFF error [9] | COSMO-RS error [10] | PCM free energy of hydration [12] | water Exp (hydration) [13, 21] | Exp (hydration) ([13]; free energy of hydration) | CHEX Exp (solvation) [14, 23] | log D Arrow MD Error [15, 25] | log D Arrow PIMD Error [15, 26] | Exp (log D) [16] | other results
CC(N)=O [Acetamide] | -9.30 kcal/mol | 2.81 kcal/mol | -9.00 kcal/mol | 0.71 kcal/mol | 0.87 kcal/mol | 0.06 kcal/mol | 0.06 kcal/mol | 0.06 kcal/mol | 4.11 kcal/mol | 0.41 kcal/mol | -7.80 kcal/mol | 1.91 kcal/mol | 2.55 kcal/mol | -6.90 kcal/mol | -9.71 kcal/mol | -9.71 kcal/mol | -3.01 kcal/mol | – | – | – | water Arrow MD Error [5, 19]: 0.87 kcal/mol; water Arrow PIMD8 Error [5, 20]: 0.06 kcal/mol; CHEX Arrow MD Error [11]: 0.63 kcal/mol; CHEX Arrow PIMD4 Error [11]: 0.58 kcal/mol; water Exp (hydration) [13, 22]: -9.71 kcal/mol; CHEX Exp (solvation) [14, 24]: -3.01 kcal/mol
CC(=O)O [AceticAcid] | -5.63 kcal/mol | 2.19 kcal/mol | -5.70 kcal/mol | 0.99 kcal/mol | 0.19 kcal/mol | 0.34 kcal/mol | 0.34 kcal/mol | 0.34 kcal/mol | 2.47 kcal/mol | 1.06 kcal/mol | -5.95 kcal/mol | 0.74 kcal/mol | 0.22 kcal/mol | -4.50 kcal/mol | -6.69 kcal/mol | -6.69 kcal/mol | -2.20 kcal/mol | – | – | – | water Arrow MD Error [5, 19]: 0.19 kcal/mol; water Arrow PIMD8 Error [5, 20]: 0.34 kcal/mol; CHEX Arrow MD Error [11]: 0.09 kcal/mol; CHEX Arrow PIMD4 Error [11]: 0.01 kcal/mol; water Exp (hydration) [13, 22]: -6.69 kcal/mol; CHEX Exp (solvation) [14, 24]: -2.20 kcal/mol
Nc1ccccc1 [Aniline] | -4.78 kcal/mol | 1.44 kcal/mol | -4.80 kcal/mol | 0.74 kcal/mol | 0.17 kcal/mol | 0.06 kcal/mol | 0.06 kcal/mol | 0.06 kcal/mol | 2.13 kcal/mol | 0.76 kcal/mol | -5.92 kcal/mol | 0.38 kcal/mol | 0.23 kcal/mol | -4.10 kcal/mol | -5.54 kcal/mol | -5.54 kcal/mol | -5.52 kcal/mol | 0.18 | 0.13 | −0.01 | –
c1ccccc1 [Benzene] | -0.86 kcal/mol | 0.72 kcal/mol | -0.70 kcal/mol | 0.18 kcal/mol | 0.58 kcal/mol | 0.17 kcal/mol | 0.17 kcal/mol | 0.17 kcal/mol | 2.32 kcal/mol | 0.02 kcal/mol | -0.70 kcal/mol | 0.18 kcal/mol | 0.01 kcal/mol | -1.60 kcal/mol | -0.88 kcal/mol | -0.88 kcal/mol | -4.19 kcal/mol | – | – | – | –
CCCCCCCC [Octane] | 1.74 kcal/mol | 3.19 kcal/mol | 2.70 kcal/mol | 0.19 kcal/mol | 1.27 kcal/mol | 0.06 kcal/mol | 0.04 kcal/mol | 0.06 kcal/mol | 3.74 kcal/mol | 1.14 kcal/mol | 3.13 kcal/mol | 0.25 kcal/mol | 0.10 kcal/mol | -0.30 kcal/mol | 2.89 kcal/mol | 2.88 kcal/mol | -5.63 kcal/mol | – | – | 6.25 | log D Arrow MD Error [15]: 0.50; log D Arrow PIMD Error [15]: 0.20
Oc1ccccc1 [Phenol] | -5.05 kcal/mol | 2.62 kcal/mol | -5.20 kcal/mol | 1.42 kcal/mol | 1.02 kcal/mol | 0.18 kcal/mol | 0.18 kcal/mol | 0.18 kcal/mol | 0.92 kcal/mol | 1.57 kcal/mol | -5.67 kcal/mol | 0.95 kcal/mol | 0.62 kcal/mol | -4.00 kcal/mol | -6.62 kcal/mol | -6.62 kcal/mol | -5.56 kcal/mol | 0.65 | 0.21 | −0.78 | –
CCN [ethylamine] | -4.33 kcal/mol | 1.70 kcal/mol | -3.80 kcal/mol | 0.70 kcal/mol | 1.03 kcal/mol | 0.12 kcal/mol | 0.12 kcal/mol | 0.12 kcal/mol | 1.30 kcal/mol | 0.17 kcal/mol | -3.14 kcal/mol | 1.36 kcal/mol | 0.30 kcal/mol | -2.80 kcal/mol | -4.50 kcal/mol | -4.50 kcal/mol | -2.13 kcal/mol | 0.69 | 0.08 | −1.74 | –
CN(C)C [trimethylamine] | -2.09 kcal/mol | 1.90 kcal/mol | -2.50 kcal/mol | 0.70 kcal/mol | 1.04 kcal/mol | 0.02 kcal/mol | 0.02 kcal/mol | 0.02 kcal/mol | 0.30 kcal/mol | 1.11 kcal/mol | -2.32 kcal/mol | 0.88 kcal/mol | 2.55 kcal/mol | -1.30 kcal/mol | -3.20 kcal/mol | -3.20 kcal/mol | -2.63 kcal/mol | – | – | −0.42 | log D Arrow MD Error [15]: 0.10; log D Arrow PIMD Error [15]: 0.43
